Experimental data taken from patent US20210163443A1, “Febrifugine Derivatives” (BRISTOL-MYERS SQUIBB COMPANY, priority 2019, published 2021).
Counter-ions that a name gives are not always drawn.

What follows are molecules tested against T1, human ProRS (prolyl tRNA synthetase moiety of glutamyl prolyl tRNA synthetase, EPRS) (Homo sapiens, UniProt P07814) (assay: Assay for inhibitors of prolyl tRNA synthetase activity (ProRS assay, labeled proline incorporation)). Details: human ProRS 20 nM, 10 min at 37° C.; read-out: EPRS IC50.
T1 construct: The prolyl tRNA synthetase moiety (ProRS) in the cDNA of glutamyl prolyl tRNA synthetase was subcloned; 6xHis (N, cleaved yes); made in house; host or cells: E. coli BL21 (DE3)
T1 sequence (P07814 1007-1512 limits assumed): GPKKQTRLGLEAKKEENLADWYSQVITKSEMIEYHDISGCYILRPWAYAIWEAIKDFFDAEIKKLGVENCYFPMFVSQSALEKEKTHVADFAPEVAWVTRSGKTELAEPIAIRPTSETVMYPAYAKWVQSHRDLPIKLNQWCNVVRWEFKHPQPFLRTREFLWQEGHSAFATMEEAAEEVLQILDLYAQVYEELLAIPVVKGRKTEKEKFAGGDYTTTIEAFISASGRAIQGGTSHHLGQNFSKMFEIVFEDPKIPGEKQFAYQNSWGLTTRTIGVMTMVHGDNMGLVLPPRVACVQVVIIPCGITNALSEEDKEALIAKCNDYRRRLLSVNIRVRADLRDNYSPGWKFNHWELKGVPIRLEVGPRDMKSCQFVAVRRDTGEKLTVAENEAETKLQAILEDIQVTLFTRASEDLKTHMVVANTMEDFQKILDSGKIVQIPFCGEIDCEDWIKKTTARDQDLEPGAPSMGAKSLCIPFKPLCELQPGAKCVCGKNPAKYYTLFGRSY
Format: biochemical
Excerpt: In order to establish the activities of the compounds highlighted above, we determined extent of inhibition of prolyl tRNA synthetase activity in dose response curves to obtain IC50 values.
The prolyl tRNA synthetase moiety (ProRS) in the cDNA of glutamyl prolyl tRNA synthetase was subcloned, tagged with a single biotin, purified and used in the assay.
Briefly, human ProRS with a 6×N-terminal His tag in pET28N with TVMV BioP was transformed in E. coli BL21 (DE3) cells, selected, overexpressed and purified using a Ni Seph 6 FF XK 16/20 column in the first stage. Ni-NTA eluates were pooled and treated with TVMV protease, and biotinylated using d-Biotin, MgCl2, ATP and the BirA enzyme. This was rerun through a Ni column as before. The eluates were further enriched and purified using membrane ultrafiltration and a SuperDex 200 XK 16/60 column, and peak fractions were confirmed by SDS-PAGE prior to protein amount determination, aliquoting and storage at −80° C. • ProRS assay was performed in 96 well plates in a final reaction volume of 20 μl, using staggered additions of Tris-Cl (pH 7.5, 60 mM), dithiothreitol (2 mM), ATP (5 mM, pH 7.0), MgCl2 6 mM), ProRS (20 nM, with pre-determined active fraction range) and bovine tRNA (20 μg). Controls and compounds, at various concentrations (10 μM to 0.5 nM), were incubated on ice with enzyme mix for 15 min followed by addition of proline (non-labeled and labeled, 3.96 and 1.04 μM (1 μCi) respectively) to initiate the reaction. Reaction was carried out for 10 min at 37° C. and terminated by addition of TCA (10%, 100 μl). Reaction mix was collected on a Whatman GF/B filter using a vacuum filtration manifold. This filter was washed 3 times with 5% TCA followed by 2 washes with ethanol, air dried, and read using a liquid scintillation counter (TopCount NXT) using MicroScint O. IC50 values were calculated and analyzed using ToolSet (4-parameter plot) and depicted herein.
`Cc1cc(C2CC2)cc2c(=O)n(C[C@@H](O)C[C@H]3NCCC[C@@H]3O)cnc12` [Example 46, 6-Cyclopropyl-3-{(S)-2-hydroxy-3-[(2R,3S)-3-hydroxypiperidin-2-yl]propyl}-8-methylquinazolin-4(3H)-one hydrochloride] gave an IC50 of 34 nM. `Cc1cc(C#N)cc2c(=O)n(C[C@@H](O)C[C@H]3NCCC[C@@H]3O)cnc12` [Example 47, 3-{(S)-2-Hydroxy-3-[(2R,3S)-3-hydroxypiperidin-2-yl]propyl}-8-methyl-4-oxo-3,4-dihydroquinazoline-6-carbonitrile hydrochloride] was tested, and the IC50 was 235 nM. `Cl.O=c1c2c(-c3cccc(F)c3)cccc2ncn1C[C@@H](O)C[C@H]1NCCC[C@@H]1O` [Example 49, 5-(3-Fluorophenyl-3-{(S)-2-hydroxy-3-[(2R,3S)-3-hydroxypiperidin-2-yl]propyl}quinazolin-4(3H)-one hydrochloride] showed an IC50 of 41 nM. For `O=c1c2cc(-c3cccc(F)c3)ccc2ncn1C[C@@H](O)C[C@H]1NCCC[C@@H]1O` [Example 50, 6-(3-Fluorophenyl)-3-{(S)-2-hydroxy-3-[(2R,3S)-3-hydroxypiperidin-2-yl]propyl}quinazolin-4(3H)-one hydrochloride], the IC50 was 14 nM. In the case of `O=c1c2cc(-c3cccc(Cl)c3)ccc2ncn1C[C@@H](O)C[C@H]1NCCC[C@@H]1O` [Example 51, 6-(3-Chlorophenyl)-3-{(S)-2-hydroxy-3-[(2R,3S)-3-hydroxypiperidin-2-yl]propyl}quinazolin-4(3H)-one hydrochloride], the IC50 is reported as 23 nM. In the case of `O=c1c2cc(-c3cccc(C(F)(F)F)c3)ccc2ncn1C[C@@H](O)C[C@H]1NCCC[C@@H]1O` [Example 52, 3-{(S)-2-hydroxy-3-[(2R,3S)-3-hydroxypiperidin-2-yl]propyl}-6-(3-(trifluoromethyl)phenyl)quinazolin-4(3H)-one hydrochloride], the IC50 is reported as 40 nM. `Cc1cc(-c2cccc(F)c2)cc2c(=O)n(C[C@@H](O)C[C@H]3NCCC[C@@H]3O)cnc12` [Example 53, 6-(3-Fluorophenyl)-3-{(S)-2-hydroxy-3-[(2R,3S)-3-hydroxypiperidin-2-yl]propyl}-8-methylquinazolin-4(3H)-one hydrochloride] gave an IC50 of 9 nM. Work on `Cc1cc(-c2cccc(C(F)(F)F)c2)cc2c(=O)n(C[C@@H](O)C[C@H]3NCCC[C@@H]3O)cnc12` [Example 54, 3-{(S)-2-Hydroxy-3-[(2R,3S)-3-hydroxypiperidin-2-yl]propyl}-8-methyl-6-(3-(trifluoromethyl)phenyl)quinazolin-4(3H)-one hydrochloride] yielded an IC50 of 31 nM. For `Cc1cc(-c2cccnc2)cc2c(=O)n(C[C@@H](O)C[C@H]3NCCC[C@@H]3O)cnc12` [Example 55, 3-{(S)-2-Hydroxy-3-[(2R,3S)-3-hydroxypiperidin-2-yl]propyl}-8-methyl-6-(pyridin-3-yl)quinazolin-4(3H)-one dihydrochloride], the IC50 was 11 nM. In the case of `Cc1cc(-c2ccc(F)c(F)c2)cc2c(=O)n(C[C@@H](O)C[C@H]3NCCC[C@@H]3O)cnc12` [Example 56, 6-(3,4-Difluorophenyl)-3-{(S)-2-hydroxy-3-[(2R,3S)-3-hydroxypiperidin-2-yl]propyl}-8-methylquinazolin-4(3H)-one hydrochloride], the IC50 is reported as 4 nM. Work on `Cc1cc(C2CCOCC2)cc2c(=O)n(C[C@@H](O)C[C@H]3NCCC[C@@H]3O)cnc12` [Example 57, 3-{(S)-2-Hydroxy-3-[(2R,3S)-3-hydroxypiperidin-2-yl]propyl}-8-methyl-6-(tetrahydro-2H-pyran-4-yl)quinazolin-(3H)-one hydrochloride] yielded an IC50 of 52 nM. `Cc1cc(N2CCCC2)cc2c(=O)n(C[C@@H](O)C[C@H]3NCCC[C@@H]3O)cnc12` [Example 58, 3-{(S)-2-Hydroxy-3-[(2R,3S)-3-hydroxypiperidin-2-yl]propyl}-8-methyl-6-(pyrrolidin-1-yl)quinazolin-4(3H)-one dihydrochloride] gave an IC50 of 321 nM. For `O=c1c2c(C(F)(F)F)cccc2ncn1C[C@@H](O)C[C@H]1NCCC[C@@H]1O` [Example 59, 3-{(S)-2-Hydroxy-3-[(2R,3S)-3-hydroxypiperidin-2-yl]propyl}-5-(trifluoromethyl)quinazolin-4(3H)-one hydrochloride], the IC50 was 316 nM. Molecule `O=c1c2c(-c3cccc(C(F)(F)F)c3)cccc2ncn1C[C@@H](O)C[C@H]1NCCC[C@@H]1O` [Example 60, 3-{(S)-2-Hydroxy-3-[(2R,3S)-3-hydroxypiperidin-2-yl]propyl}-5-[3-(trifluoromethyl)phenyl]quinazolin-4(3H)-one hydrochloride] has an IC50 of 38 nM. In the case of `O=c1c2c(-c3ccc(F)c(F)c3)cccc2ncn1C[C@@H](O)C[C@H]1NCCC[C@@H]1O` [Example 61, 5-(3,4-Difluorophenyl)-3-{(S)-2-hydroxy-3-[(2R,3S)-3-hydroxypiperidin-2-yl]propyl}quinazolin-4(3H)-one hydrochloride], the IC50 is reported as 69 nM. In the case of `O=c1c2c(-c3cccnc3)cccc2ncn1C[C@@H](O)C[C@H]1NCCC[C@@H]1O` [Example 62, 3-{(S)-2-Hydroxy-3-[(2R,3S)-3-hydroxypiperidin-2-yl]propyl}-5-(pyridin-3-yl)quinazolin-4(3H)-one dihydrochloride], the IC50 is reported as 53 nM. `Cc1cc(Cl)cc2c(=O)n(C[C@@H](O)C[C@H]3NCCC[C@@H]3OC(=O)C(C)(C)C)cnc12` [Example 63, (2R,3S)-2-{(S)-3-[6-chloro-8-methyl-4-oxoquinazolin-3(4H)-yl]-2-hydroxypropyl}piperidin-3-ylpivalate hydrochloride] was tested, and the IC50 was > 10000 nM. Molecule `Cc1cc(-c2ccn(C)n2)cc2c(=O)n(C[C@@H](O)C[C@H]3NCCC[C@@H]3O)cnc12` [Example 64, 3-{(S)-2-hydroxy-3-[(2R,3S)-3-hydroxypiperidin-2-yl]propyl}-8-methyl-6-(1-methyl-1H-pyrazol-3-yl)quinazolin-4(3H)-one hydrochloride] has an IC50 of 30 nM. For `COC(=O)N1CCC[C@H](O)[C@H]1C[C@H](O)Cn1cnc2c(C)cc(Cl)cc2c1=O` [Example 65, Methyl (2R,3S)-2-((S)-3-(6-chloro-8-methyl-4-oxoquinazolin-3(4H)-yl)-2-hydroxypropyl)-3-hydroxypiperidine-1-carboxylate], the IC50 was > 10000 nM. In the case of `Cc1cc(-c2cscn2)cc2c(=O)n(C[C@@H](O)C[C@H]3NCCC[C@@H]3O)cnc12` [Example 66, 3-((S)-2-hydroxy-3-((2R,3S)-3-hydroxypiperidin-2-yl)propyl)-8-methyl-6-(thiazol-4-yl)quinazolin-4(3H)-one hydrochloride], the IC50 is reported as 13 nM. In the case of `Cc1cc(C2CCC2)cc2c(=O)n(C[C@@H](O)C[C@H]3NCCC[C@@H]3O)cnc12` [Example 67, 6-cyclobutyl-3-{(S)-2-hydroxy-3-[(2R,3S)-3-hydroxypiperidin-2-yl]propyl}-8-methylquinazolin-4(3H)-one], the IC50 is reported as 18 nM. In the case of `O=c1c2c(C3CC3)cccc2ncn1C[C@@H](O)C[C@H]1NCCC[C@@H]1O` [Example 68, 5-Cyclopropyl-3-{(S)-2-hydroxy-3-[(2R,3S)-3-hydroxypiperidin-2-yl]propyl}quinazolin-4(3H)-one hydrochloride], the IC50 is reported as 9 nM. With `Cc1cc(C2CCNCC2)cc2c(=O)n(C[C@@H](O)C[C@H]3NCCC[C@@H]3O)cnc12` [Example 69, 3-{(S)-2-hydroxy-3-[(2R,3S)-3-hydroxypiperidin-2-yl]propyl}-8-methyl-6-(piperidin-4-yl)quinazolin-4(3H)-one dihydrochloride] the IC50 was 106 nM.
